Source: patent US5910499A, “Antiallergic agent having an anti-oxidant action” (LTT Institute Co., Ltd., priority 1997, dated 1999)

Columns and labels:
rat liver microsome = assay: ADP/Fe^3+ induced lipid peroxidation reaction using rat liver microsome (anti-oxidant action); type: biochemical; settings: for inhibition action on lipid peroxidation compared with BHT: versus BHT, positive control (FIG. 1)
Experimental: Test Example 1 [Anti-oxidant-action (lipid peroxide production inhibiting action)]
Compounds II-VII represented by the following formulae [drawing 3] have shown concentration dependent inhibition action on ADP/Fe^3+ induced lipid peroxidation reaction using rat liver microsome.
Test method (ADP/Fe^3+ induced lipid peroxidation reaction)
The method of Kiso et al. was employed. That means, 100 μl of a rat liver microsome suspension (20 mg of protein/ml), 100 μl of a 2 mM NADPH, 100 μl of a 10 mM ADP, and 100 μl of a specimen solution whose concentration was controlled with a 10% N,N-dimethylformamide (DMF) aqueous solution were added to 500 μl of a trihydroxymethylaminomethane (Tris)-HCl buffer solution (167 mM KCl, 74.4 mM Tris, pH 7.4) and heated at 37° C. for 5 minutes. Then 100 μl of 100 μM FeCl3 was added thereto and heated at 37° C. for 20 minutes
To a control was added 100 μl of a 10% DMF aqueous solution instead of the specimen solution. To a blank, 100 μl of a 10% DMF aqueous solution was added instead of the specimen solution, and 300 μl of water was added instead of 100 μl of the NADPH, 100 μl of the FeCl3, and 100 μl of the ADP. The reaction was stopped by cooling with ice, and the amount of the lipid peroxide was calculated as an amount of malondialdehyde according to the method of Ohkawa et al.
That means, 200 μl of a 8.1% sodium dodecyl sulfate (SDS) aqueous solution, 1.5 ml of an acetic acid buffer solution (20% AcOH containing 0.27M HCl was controlled with 10M NaOH to have a pH of 3.5), and 1.5 ml of a 0.8% 2-thiobarbituric acid aqueous solution were added to 1 ml of the reaction mixture and heated in a boiling water bath for 20 minutes Following heating, the reaction was stopped with cooling with ice and 4 ml of n-BuOH-pyridine mixed solution (15:1) was added thereto and mixed vigorously. Then the mixture was subjected to centrifugation at 800×g for 10 minutes and the absorbancy of the supernatant liquid was measured at 532 nm.

[1] = system: rat cutaneous anaphylactic reaction (PCA reaction); assay: Antiallergic action in an orally administered rat, 48 hours homologous PCA reaction; type: in vivo; settings: Wistar male rat, oral, 2 hours before antigen; versus tranilast (FIG. 2)
Experimental: Test Example 4--Antiallergic action in an orally administered rat (PCA method)
The antiallergic actions of Compound II-Compound VII were evaluated using rat cutaneous anaphylactic reaction (PCA reaction) employing tranilast, which is an oral antiallergic agent, as a positive control compound.
Test method (Antiallergic action by PCA reaction)
The test was carried out according to the method of Koda et al, {Int. Arch. Allergy Appl. Immunol. 87, 254(1988)}. The dorsum of a Wistar-strain male rat having a body weight of about 200 g was shaved and 0.1 ml of an antiserum showing 48 hours homologous PCA strength of 1:128-1:256 diluted with physiological saline was injected into the dorsum intracutaneously. […] After 30 minutes, the rat was brought to death by exsanguination and the pigment freckle generated on the back skin was cut out and the amount of the transuded pigment was determined. That means, the cut out skin was put in a test tube, 1 ml of 1N KOH was added and allowed to stand overnight at 37° C. to elute the pigment, and 9 ml of a mixture comprising acetone and 0.6N phosphoric acid (mixed at 13:5) was added thereto and shaken, and the insoluble substances were removed by filtration and the absorbency of the filtrate was measured at 620 nm and the amount of the pigment was determined. […]

guinea pig bowel = target: T1, guinea pig bowel (Cavia porcellus, UniProt P31389); assay: Antihistaminic action with guinea pig bowel by Magnus' method; settings: guinea pig ileum, histamine dose reaction curve, 37° C.; read-out: pA2 (index of the antihistaminic action) (converted)
T1 construct: the ileum was excised to a length of about 2 cm; from tissue; host or cells: guinea pig ileum
T1 sequence (P31389 whole entry): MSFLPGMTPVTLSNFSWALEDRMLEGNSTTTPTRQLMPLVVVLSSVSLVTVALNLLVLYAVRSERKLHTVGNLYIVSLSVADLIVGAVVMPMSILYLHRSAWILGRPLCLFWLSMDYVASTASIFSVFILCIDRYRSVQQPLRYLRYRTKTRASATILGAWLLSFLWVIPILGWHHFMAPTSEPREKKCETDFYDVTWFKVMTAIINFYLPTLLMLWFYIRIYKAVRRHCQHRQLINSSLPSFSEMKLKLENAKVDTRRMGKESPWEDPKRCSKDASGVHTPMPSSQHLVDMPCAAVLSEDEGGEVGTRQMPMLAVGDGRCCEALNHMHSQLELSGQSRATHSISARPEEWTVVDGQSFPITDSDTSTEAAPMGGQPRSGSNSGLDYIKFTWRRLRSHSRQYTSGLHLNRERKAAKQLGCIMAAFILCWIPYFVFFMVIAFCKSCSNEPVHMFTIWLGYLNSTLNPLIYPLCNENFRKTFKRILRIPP
Experimental: Test Example 3--Antihistaminic action
The antihistaminic action of the Compound V was tested with a guinea pig bowel by Magnus' method using diphenhydramine hydrochloride as a positive control.
A guinea pig which had been fasted overnight was struck to death and the ileum was excised to a length of about 2 cm and one end was suspended in an isotonic transducer and the other end was secured onto a fixed rod. The temperature of the temperature controlled bath was kept at 37° C. and the ileum was allowed to stand for about 30 minutes while a mixed gas comprising 95% of O2 and 5% of CO2 was introduced into 10 ml of Tyrode solution, and histamine of different concentrations was injected for training, then a dose reaction curve was obtained by administering histamine accumulatively in order of increasing concentration. Then after washing, a dose reaction curve in relation to the histamine was similarly obtained under administration of the specimen and pA2 was calculated.

5-lipoxygenase = target: T2, 5-lipoxygenase (Rattus norvegicus, UniProt P12527); assay: 5-lipoxygenase inhibiting action (leucotriene production inhibiting action), RBL-1 cell homogenate; type: biochemical; settings: arachidonic acid, 37° C., 5-HETE by HPLC
T2 construct: subjected to supersonic treatment and the cells were disrupted; endogenous in cells; host or cells: RBL-1 cells (homogenate)
T2 sequence (P12527 1-673): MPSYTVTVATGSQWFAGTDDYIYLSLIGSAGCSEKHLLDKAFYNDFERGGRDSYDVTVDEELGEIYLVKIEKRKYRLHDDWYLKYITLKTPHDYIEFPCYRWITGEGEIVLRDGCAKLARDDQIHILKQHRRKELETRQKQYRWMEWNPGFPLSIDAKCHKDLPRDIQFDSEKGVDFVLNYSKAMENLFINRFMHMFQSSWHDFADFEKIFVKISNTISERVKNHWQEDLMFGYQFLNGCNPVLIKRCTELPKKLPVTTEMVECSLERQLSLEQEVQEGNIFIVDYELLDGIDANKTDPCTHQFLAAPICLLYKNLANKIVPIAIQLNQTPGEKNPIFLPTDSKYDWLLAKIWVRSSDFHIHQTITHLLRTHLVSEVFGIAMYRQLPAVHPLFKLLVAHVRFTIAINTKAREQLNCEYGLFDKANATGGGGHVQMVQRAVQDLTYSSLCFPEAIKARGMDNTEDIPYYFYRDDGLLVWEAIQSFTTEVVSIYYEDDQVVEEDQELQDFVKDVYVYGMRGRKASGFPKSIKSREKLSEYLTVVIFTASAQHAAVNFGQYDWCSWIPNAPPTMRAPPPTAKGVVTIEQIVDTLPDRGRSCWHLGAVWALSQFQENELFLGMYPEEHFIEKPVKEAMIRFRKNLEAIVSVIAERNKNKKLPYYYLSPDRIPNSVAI
Experimental: Test method (5-lipoxygenase inhibition action)
That means, a RBL-1 cell suspension which was adjusted with a 50 mM phosphate buffer such that the number of cells became 1×10^7 cells/ml, was subjected to supersonic treatment and the cells were disrupted To 500 μl of the cell homogenate solution was added 10 μl of a specimen solution whose concentration was adjusted to different concentrations using a 1% DMSO, 10 μl of 100 mM CaCl2 and 10 μl of a 10 mg/ml arachidonic acid solution in MeOH and heated to 37° C. for 3 minutes. To a control was added 10 μl of a 1% DMSO instead of the specimen. To a blank, 10 μl of a 1% DMSO was added instead of the specimen, and 500 μl of a 50 mM phosphate buffer was added instead of RBL-1 cell suspension. Then 500 μl of MeOH was added thereto and the mixture was cooled with ice to stop the reaction, followed by mixing and centrifugation at 2000×g for 15 minutes Then the amount of 5-HETE in 10 μl of the supernatant liquid was measured using HPLC under the following conditions.
mobile phase; acetonitrile: 0.1% acetic acid=85:15
detection wave length; 235 nm
The inhibition ratio to 5-lipoxygenase activity was calculated according to the following formula.

| Kb (guinea pig bowel) | IC50 (5-lipoxygenase) | SMILES | inhibition action on lipid peroxidation compared with BHT (rat liver microsome) | antiallergic activity compared with the positive control compound (tranilast) [1] | anti-oxidant action, ranking among the compounds of Test Example 1 (rat liver microsome; result in words) |
| --- | --- | --- | --- | --- | --- |
|  |  | Cc1cc(OCCCN2CCN(C(c3ccccc3)c3ccccc3)CC2)c(C)c(C)c1O [Compound III] | higher inhibition actions than BHT |  |  |
|  |  | Cc1cc(OCCN2CCN(C(c3ccccc3)c3ccccc3)CC2)c(C)c(C)c1O [Compound II] | higher inhibition actions than BHT |  |  |
|  |  | Cc1cc(OCCCCN2CCN(C(c3ccccc3)c3ccccc3)CC2)c(C)c(C)c1O [Compound IV] | higher inhibition actions than BHT | higher activity than that of the positive control compound |  |
| 0.126 µM | 6.2 µM | Cc1cc(OCCCCCCN2CCN(C(c3ccccc3)c3ccccc3)CC2)c(C)c(C)c1O [Compound V] | higher inhibition actions than BHT | higher activity than that of the positive control compound | highest anti-oxidant action |
